For 13 compounds, TGI results are on record in PubChem BioAssay (NCI).

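Method: 48-hour compound exposure of cells in 96-well plates, five concentrations, linear interpolation of endpoints. At the TGI there is no net growth.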

Holding throughout (assay): inhibition of tumour cell growth, NCI panel, 48 h
Experiment [1] deals with NCI-H226 lung.
Experiment [2] has as its system SW-620 colon.
Experiment [3] relates to SK-MEL-5 melanoma.
The subject of experiment [4] is NCI/ADR-RES ovarian.
Experiment [5] relates to MDA-MB-435.
Experiment [6] has as its system TK-10 renal.
The test system of experiment [7] is U251 CNS.
Experiment [8] has as its system A549 NSCLC.
The subject of experiment [9] is SNB-75 CNS.
For experiment [10], the system named is COLO 205 colon.
In experiment [11] the test system is HCT-15 colon.
In experiment [12] the test system is SNB-19 CNS.
In experiment [13] the test system is SF-268 CNS.
For experiment [14], the system named is HOP-62 NSCLC.
The subject of experiment [15] is EKVX NSCLC.
Experiment [16] relates to LOX IMVI melanoma.
Experiment [17] has as its system HOP-92 NSCLC.
The test system of experiment [18] is SR leukemia.
Experiment [19] has as its system SK-MEL-2 melanoma.

Turning to `C/C(O[Si](C(C)C)(C(C)C)C(C)C)=C(\C)C(=O)N(C)c1ccccc1Cl`, the TGI in experiment [1], in experiment [2], in experiment [3], in [4], in experiment [5] and in [6] was greater than 100 µM each time. Further, the TGI in experiment [7], in experiment [8], in experiment [9], in experiment [10], in experiment [11] and in experiment [12] was greater than 100 µM in each case. For the same compound, the TGI in [13], in experiment [14], in experiment [15], in experiment [16] and in experiment [17] was greater than 100 µM in each case.

For the compound `CC(=O)O[C@H]1C(=O)[C@@]2(C)[C@H]([C@H](OC(=O)c3ccccc3)[C@]3(O)C[C@H](OC(=O)[C@H](O)[C@@H](NC(=O)c4ccc(N(C)C)cc4)c4ccccc4)C(C)=C1C3(C)C)[C@]1(OC(C)=O)CO[C@@H]1C[C@@H]2O`, the TGI in experiment [2] is greater than 50 µM; in [3] it was greater than 22.1 µM; in experiment [4] it was 16.7 µM; in experiment [6], greater than 45.1 µM; in [7], greater than 50 µM; in experiment [8], greater than 50 µM. Further, the TGI in experiment [9] is greater than 50 µM; in experiment [11], greater than 50 µM; in [12], greater than 50 µM; in experiment [13], greater than 50 µM; in experiment [18], greater than 18.5 µM; in [14], greater than 50 µM. Also, the TGI in experiment [15], in experiment [16] and in experiment [17] was greater than 50 µM each time.

Regarding `NS(=O)(=O)c1nnc(NS(=O)(=O)c2ccc([N+](=O)[O-])cc2)s1`, the TGI in experiment [1], in [2], in experiment [3], in experiment [4], in experiment [5] and in experiment [6] was greater than 100 µM each time. In addition, the TGI in experiment [7], in [8], in experiment [9], in experiment [10], in experiment [11] and in experiment [13] was greater than 100 µM each time. Moreover, the TGI in [18], in experiment [14], in experiment [19], in experiment [15], in [16] and in experiment [17] was greater than 100 µM throughout.

Consider `NC(N)=N/N=C/c1c(-c2cc([N+](=O)[O-])c(Cl)cc2Cl)nc2n1CCS2`, for which the TGI is 92.5 µM in experiment [1]; greater than 100 µM in experiment [2]; greater than 100 µM in experiment [3]; greater than 100 µM in [4]; 74.3 µM in experiment [5]; 45.9 µM in experiment [6]. Further, the TGI was greater than 100 µM in experiment [7]; greater than 100 µM in [8]; greater than 100 µM in experiment [11]; 16.5 µM in [12]; greater than 100 µM in experiment [13]; 3.43 µM in experiment [18]. Moreover, the TGI in [14] was greater than 100 µM; in experiment [19], 9.45 µM; in [15], greater than 100 µM; in [16], greater than 100 µM; in [17], 61.6 µM.

For the compound `O=C(c1ccco1)N(C(=S)N1CCN(c2ccccn2)CC1)c1ccccc1`, the TGI in experiment [1], in experiment [2], in [3], in [6], in [7] and in [8] was greater than 100 µM each time. Further, the TGI in experiment [9], in experiment [10], in experiment [11], in [12], in experiment [13] and in experiment [18] was greater than 100 µM in each case. Further, the TGI in experiment [14], in experiment [19], in experiment [16] and in [17] was greater than 100 µM throughout.

For the compound `COc1ccc(/C(Cl)=C(\C=O)c2ccc(Cl)cc2)cc1OC`, the TGI in experiment [1] was 36.6 µM; in experiment [2] it was 15.4 µM; in [3] it was greater than 100 µM; in experiment [6] it was 31.1 µM; in [7], 14.7 µM; in [8], greater than 100 µM. Also, the TGI in experiment [9] is 11.5 µM; in experiment [10], 13.2 µM; in [11] it was greater than 100 µM; in experiment [12], greater than 100 µM; in experiment [13], greater than 100 µM; in experiment [18], 5.81 µM. The TGI in experiment [14] is 42.3 µM; in experiment [19], 57.2 µM; in [15] it was greater than 100 µM; in experiment [16] it was 14.5 µM.

Regarding `C=CCn1c(=N)/c(=C(\N)O)s/c1=C1/SC(=S)N(c2ccc(C)cc2)C1=O`, the TGI in experiment [1], in experiment [2], in experiment [3], in experiment [6], in experiment [7] and in [8] was greater than 100 µM each time. The TGI in experiment [9] is 44.6 µM; in experiment [10], greater than 100 µM; in [12], greater than 100 µM; in experiment [13], greater than 100 µM; in experiment [18] it was greater than 100 µM; in experiment [19] it was greater than 100 µM. For the same compound, the TGI in [17] was greater than 100 µM.

For the compound `CN1NC(c2ccccc2)=C(C#N)C(=O)CC1c1ccc(Br)cc1` (stereo not drawn), the TGI is 4.24 µM in experiment [1]; greater than 100 µM in experiment [2]; 57.7 µM in experiment [3]; greater than 100 µM in [6]; greater than 100 µM in [8]; 46.9 µM in experiment [9]. Moreover, the TGI was greater than 100 µM in [11]; greater than 100 µM in [12]; greater than 100 µM in experiment [13]; greater than 100 µM in experiment [18]; 61 µM in experiment [14]; 70 µM in [19]. The TGI in [16] and in experiment [17] was greater than 100 µM throughout.

As to `O=[N+]([O-])C(C(Cl)=C(Cl)Cl)=C(n1cncn1)n1cncn1`, the TGI in experiment [1] is greater than 100 µM; in [2], 43.1 µM; in [3] it was 31.8 µM; in experiment [4] it was 67 µM; in [5] it was greater than 71.8 µM; in experiment [6] it was greater than 100 µM. For the same compound, the TGI was greater than 87.1 µM in experiment [7]; greater than 100 µM in [8]; greater than 65.3 µM in [9]; 26.7 µM in experiment [10]; 36.7 µM in [11]; greater than 100 µM in experiment [12]. Besides, the TGI was 35.3 µM in experiment [13]; greater than 100 µM in [18]; greater than 100 µM in [14]; greater than 100 µM in [19]; 59.9 µM in experiment [15]; 44.9 µM in experiment [16].

In the case of `O=c1[nH]nc(-c2ccc(F)cc2)cc1-c1ccccc1`, the TGI in [1], in experiment [2], in experiment [3], in experiment [4], in [5] and in experiment [6] was greater than 100 µM throughout. For the same compound, the TGI in [7], in experiment [8], in [10], in experiment [11], in experiment [12] and in experiment [13] was greater than 100 µM in each case. Moreover, the TGI in experiment [18], in [19], in [15], in experiment [16] and in experiment [17] was greater than 100 µM throughout.

As for `Cc1nc(Nc2ccc(Cl)c(Cl)c2)sc1C(=O)/C=C/c1ccc2c(c1)OCO2`, the TGI in [1] was 62 µM; in experiment [2], greater than 100 µM; in experiment [3], 97.4 µM; in experiment [4] it was greater than 100 µM; in [5] it was 48.4 µM; in experiment [6] it was 53.6 µM. Besides, the TGI in experiment [7] came out at 49 µM; in [8], 48.5 µM; in experiment [9], 31.4 µM; in experiment [10], 60.6 µM; in [12], 51.9 µM; in experiment [13] it was 64 µM. For the same compound, the TGI in experiment [14] is 36.5 µM; in [15], 87.2 µM; in experiment [16] it was 35.3 µM.

Take `CC[n+]1c(/C=C/c2ccc(N(CCCl)CCCl)cc2)ccc2cc(I)ccc21`: the TGI was 5.63 µM in [1]; 6.96 µM in experiment [2]; 9.04 µM in experiment [6]; 13.8 µM in [8]; 0.903 µM in experiment [9]; 28.1 µM in experiment [11]. The TGI in experiment [12] came to 2.35 µM; in experiment [18] it was 2.42 µM; in [14], 3.55 µM; in [19] it was 1.39 µM; in experiment [15], 12 µM; in experiment [16] it was 2.85 µM. The compound also registered a TGI in [17] of 2.13 µM.

In the case of `OC12c3ccccc3C1CCCCCC21OCCCO1` (stereo not drawn), the TGI in experiment [1], in [2], in [3], in experiment [6], in experiment [7] and in experiment [8] was greater than 100 µM each time. Besides, the TGI in experiment [9], in experiment [10], in [11], in [12], in experiment [13] and in [14] was greater than 100 µM each time. Moreover, the TGI in experiment [19] and in experiment [16] was greater than 100 µM in each case.
